Measured values taken from publication PMC10287695, “Non-covalent inhibitors of thioredoxin glutathione reductase with schistosomicidal activity in vivo” (Nature Communications, 2023).
Several values for one entry are separate records, joined by “and”; a condition that tells them apart may be missing. Identical values can stand only once. Like-named read-outs stand apart in the source and are kept apart here. Marks after values point to notes of the source that are not given here.

Experiments:
S. mansoni adult worms [1] = assay: Schistosomicidal activity ex vivo, adult worms (Cell Titer Glo), alone or with channel blockers; type: cell-based; settings: for LD50 ex vivo S. mansoni adult: 24 h exposure
Method: Three-week old, female Swiss-Webster mice obtained from the Charles River were housed in the Comparative Research Center of Rush University Medical Center. Mice were infected by percutaneous tail exposure to about 200 S. mansoni or 50 S. japonicum cercaria for adult worms and about 1000 cercaria for juvenile S. mansoni worms through natural transdermal penetration of the cercariae for 1 h[81].
DMSO formulated compounds were diluted with phenol red free M199 medium or RPMI medium for NTS or juvenile and adult worms, respectively, at <1% DMSO final concentrations. NTS, juvenile and adult worms from overnight cultures were tested against compounds in triplicate. Controls were treated with DMSO alone or 5 µM AF as a positive control in appropriate medium. […] Schistosome viabilities in the presence of the compounds were assessed using this formula: % Viability = Averages of Test / Averages of DMSO Control x 100.

Vero cells = assay: Cytotoxicity in mammalian cells (Cell Titer Glo); type: cell-based; settings: for LD50 ex vivo VERO: African green monkey, 24 h
Method: Following overnight incubation, formulated DMSO-compound stock solutions were diluted with DMEM at <1% DMSO final concentrations. […] Vero cells treated similarly with different concentrations of PZQ, MZM and AF (Cayman Chemicals) were used as positive controls.

S. mansoni TGR = molecular target: T1, S. mansoni TGR (Schistosoma mansoni, UniProt Q962Y6); assay: S. mansoni TGR enzyme inhibition (DTNB reduction); type: biochemical; settings: for inhibition at 30 µM: compound 30 µM; for IC50: 15 min preincubation (enzyme + 100 µM NADPH + compound); for inhibition at 15 µM: compound 15 µM
T1 construct: made in house
T1 sequence (Q962Y6 1-598): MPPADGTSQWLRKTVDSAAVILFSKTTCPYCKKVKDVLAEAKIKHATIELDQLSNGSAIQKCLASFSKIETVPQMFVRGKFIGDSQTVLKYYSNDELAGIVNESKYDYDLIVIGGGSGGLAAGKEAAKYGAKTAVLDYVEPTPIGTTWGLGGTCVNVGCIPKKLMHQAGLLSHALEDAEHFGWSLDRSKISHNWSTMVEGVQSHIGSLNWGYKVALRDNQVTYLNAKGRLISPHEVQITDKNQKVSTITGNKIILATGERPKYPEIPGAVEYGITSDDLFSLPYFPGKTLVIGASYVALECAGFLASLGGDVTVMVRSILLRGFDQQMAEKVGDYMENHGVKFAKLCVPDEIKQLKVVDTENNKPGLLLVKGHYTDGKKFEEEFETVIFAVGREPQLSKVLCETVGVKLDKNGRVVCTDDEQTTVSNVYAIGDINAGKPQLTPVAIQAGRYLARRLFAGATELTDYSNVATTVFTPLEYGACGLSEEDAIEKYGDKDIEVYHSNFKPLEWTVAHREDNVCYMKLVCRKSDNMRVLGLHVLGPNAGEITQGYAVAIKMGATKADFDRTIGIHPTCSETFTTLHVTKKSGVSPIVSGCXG

S. mansoni adult worms [2] = assay: GSH/GSSG ratio in ex vivo adult worms; type: cell-based; settings: for Decrease (%) in GSH/GSSG ratio: adult worms, 3 h exposure to compounds at 50 μM; for Ratio GSH/GSSG: 0hr 72.45
Method: We assessed GSH/GSSG levels experimentally by treating S. mansoni adult worms with 50 µM of compounds, or respective controls 5 µM Auranofin, 50 µM PZQ or 50 µM MZM and 0.01% DMSO for 3 h. Worm homogenate was prepared by washing three times with PBS to remove residual compounds and ten volumes of ice cold 5% sulfosalicylic acid was added. Worms were manually homogenized on ice using VWR Pellet Mixer Adaptor. The worm suspension was centrifuged at 14000 × g, 4 °C for 10 min and the acid supernatants transferred. An equal volume of ice-cold neutralization buffer (500 mM HEPES, pH 8.0) was added to the acid supernatants.
GSH/GSSG assay was performed by diluting the acid supernatant (5-fold) with ice-cold dilution buffer (250 mM HEPES, pH 7.5). Using white opaque luminescence plate on ice, 25 µl of the diluted worm acid supernatant was added each well in triplicates. Total glutathione lysis reagent and GSSG lysis reagent, which contains alkylating agent N-ethylmaleimide (25 mM) were prepared following manufactures protocol and added to respective wells along with blank for background. Total glutathione lysis reagent or oxidized glutathione lysis reagent (25 µl) was added to respective wells containing worm acid supernatants and the plate was shaken for 5 min. Luciferin generation reagent (LGR) (50 µl) was added to all wells, briefly shaken and incubated at room temperature for 30 min. Luciferin detection reagent (LDR) (100 µl) was added to all wells, briefly shaken and incubated for 15 min at room temperature and the luminescence measured using microplate imager (BioTek Cytation3). GSH/GSSH ratio for DMSO control and compounds were calculated using (Net DMSO total glutathione RFU) – (Net DMSO GSSG RFU)/ (Net DMSO GSSG RFU)/2 and (Net inhibitor total glutathione RFU) – (Net inhibitor GSSG RFU)/ (Net inhibitor GSSG RFU)/2 respectively.

[3] = adult worms ex vivo, 1 hr, relative to 0hr
[4] = adult worms ex vivo, 3 hr, relative to 0hr
[5] = Schistosoma mansoni, S. mansoni adult worms, Conc. 5 µM, read-out: % viability
[6] = Schistosoma mansoni, S. mansoni adult worms, Conc. 30 µM, read-out: % viability
[7] = Schistosoma mansoni, S. mansoni adult worms, Conc. 50 µM, read-out: % viability
[8] = TGR, 15 minutes pre-incubation, read-out: % inhibition
[9] = TGR, 15 minutes pre-incubation, compound 66.7 µM, read-out: % inhibition
[10] = 1 hr, third data set (r147-159)
[11] = 1 hr, third data set (r147-159), 0hr = 100
[12] = 1 hr, third data set, (values given as fraction)
[13] = 3 hr, third data set (r147-159)
[14] = 3 hr, third data set (r147-159), 0hr = 100
[15] = 3 hr, third data set, (values given as fraction)
[16] = Schistosoma mansoni, 10 µM, compound alone, read-out: % viability, adult worms
[17] = Schistosoma mansoni, 30 µM, compound alone, read-out: % viability, adult worms
[18] = Schistosoma mansoni, S. mansoni adult worms, Conc. 10 µM, read-out: % viability
[19] = adult worms ex vivo, 1 hr, relative to 0hr, values given as fraction
[20] = adult worms ex vivo, 3 hr, relative to 0hr, values given as fraction

Structure (SMILES) | LD50 ex vivo S. mansoni adult (S. mansoni adult worms [1]; compound alone) | LD50 ex vivo VERO (Vero cells) | % Ratio GSH/GSSG (S. mansoni adult worms [2]; adult worms ex vivo, 1 hr) [%] | Reduction (%) in GSH/GSSG ratio (S. mansoni adult worms [2]; [3]) [%] | % Ratio GSH/GSSG (S. mansoni adult worms [2]; adult worms ex vivo, 3 hr) [%] | Reduction (%) in GSH/GSSG ratio (S. mansoni adult worms [2]; [4]) [%] | Decrease (%) in GSH/GSSG ratio (S. mansoni adult worms [2]) | viability at 5 µM (S. mansoni adult worms [1]; [5]) [%] | viability at 30 µM (S. mansoni adult worms [1]; [6]) [%] | viability at 50 µM (S. mansoni adult worms [1]; [7]) [%] | inhibition at 30 µM (S. mansoni TGR; [8]) [%] | inhibition at 66.7 µM (S. mansoni TGR; [9]) [%] | Reduction (%) in GSH/GSSG ratio (S. mansoni adult worms [2]; 1 hr, third data set) [%] | Ratio GSH/GSSG (S. mansoni adult worms [2]; [10]) | % Ratio GSH/GSSG (S. mansoni adult worms [2]; [11]) [%] | Reduction (%) in GSH/GSSG ratio (S. mansoni adult worms [2]; [12]) [%] | Reduction (%) in GSH/GSSG ratio (S. mansoni adult worms [2]; 3 hr, third data set) [%] | Ratio GSH/GSSG (S. mansoni adult worms [2]; [13]) | % Ratio GSH/GSSG (S. mansoni adult worms [2]; [14]) [%] | Reduction (%) in GSH/GSSG ratio (S. mansoni adult worms [2]; [15]) [%] | further results
Cc1oc(-c2ccc3ccccc3c2)nc1CNC1CCCCCC1 [Compound 5] | 9.36 ± 0.47 µM | >50^a µM | 47.8314 | 20.3307 | 26.3574 | 56.0984 | 56% |  |  |  |  |  |  |  |  |  |  |  |  |  | inhibition at 66.7 µM (S. mansoni TGR; 6 h preincubation (enzyme + 100 µM NADPH + compound), read-out: S. mansoni TGR inhibition (%) at 66.7 µM): 73%
C#CCN(Cc1nc(-c2ccccc2)oc1C)[C@@H]1C[C@@H]2C[C@H]([C@H]1C)C2(C)C [Compound 6] | 15.7 ± 0.64 µM | >100^a µM |  |  |  |  | 32% | 88.5 | 42 | 23.3 | 95.8 | 96.4 | 3.259 | 70.09 | 96.7414 | 0.0326 | 8.6517 | 66.18 | 91.3483 | 0.09 | viability at 15 µM (S. mansoni adult worms [1]; Schistosoma mansoni, S. mansoni adult worms, Conc. 15 µM, read-out: % viability): 50.6%; inhibition at 1 µM (S. mansoni TGR; TGR, 15 minutes pre-incubation, compound 1 µM): 26.3%; inhibition at 5 µM (S. mansoni TGR; TGR, 15 minutes pre-incubation, compound 5 µM): 74.8%; times more potent against TGR than human TrxR1 (S. mansoni TGR; ratio of IC50s): at least 25 fold
Cc1oc(C2CCCCC2)nc1C(=O)N[C@@H]1C[C@@H]2C[C@H]([C@H]1C)C2(C)C [Compound 7] | 32.6 ± 0.26 µM | >50^a µM | 52.5902 | 13.6142 | 37.7921 | 37.9219 | 38% and 36.9% | 99.8 | 59 |  | 88.1 | 95.1 |  |  |  |  |  |  |  |  | viability at 5 µM (S. mansoni adult worms [1]; Schistosoma mansoni, 5 µM, compound alone, read-out: % viability, adult worms): 99.8%; viability at 10 µM (S. mansoni adult worms [1]; [16]): 72.9%; viability at 25 µM (S. mansoni adult worms [1]; Schistosoma mansoni, 25 µM, compound alone, read-out: % viability, adult worms): 63%; viability at 30 µM (S. mansoni adult worms [1]; [17]): 59%; viability at 10 µM (S. mansoni adult worms [1]; [18]): 72.9%; viability at 25 µM (S. mansoni adult worms [1]; Schistosoma mansoni, S. mansoni adult worms, Conc. 25 µM, read-out: % viability): 63%; IC50 (S. mansoni TGR): 14.6 ± 1.22 µM; inhibition at 15 µM (S. mansoni TGR; [8]): 75.5%; Reduction (%) in GSH/GSSG ratio (S. mansoni adult worms [2]; [19]): 0.1361%; Reduction (%) in GSH/GSSG ratio (S. mansoni adult worms [2]; [20]): 0.3792%
C[C@@H]1[C@H]2C[C@@H](C[C@H]1NCc1nc3ccccc3n1C1CCCCCC1)C2(C)C [Compound 8] | 22.3 ± 0.2 µM and 22.3 ± 0.20 µM | 32.7 ± 2.99 µM | 52.2584 | 14.1592 | 52.8952 |  | 20% |  | 30.6 | 14 | 62.9 | 78.8 | 13.1896 | 62.89 | 86.8104 | 0.13 | 20.8885 | 57.32 | 79.1115 | 0.21 | viability at 10 µM (S. mansoni adult worms [1]; [16]): 85.4%; viability at 30 µM (S. mansoni adult worms [1]; [17]): 30.6%; viability at 50 µM (S. mansoni adult worms [1]; Schistosoma mansoni, 50 µM, compound alone, read-out: % viability, adult worms): 14%; viability at 100 µM (S. mansoni adult worms [1]; Schistosoma mansoni, 100 µM, compound alone, read-out: % viability, adult worms): 6.59%; viability at 10 µM (S. mansoni adult worms [1]; [18]): 85.4%; viability at 100 µM (S. mansoni adult worms [1]; Schistosoma mansoni, S. mansoni adult worms, Conc. 100 µM, read-out: % viability): 6.59%; EC50 (Vero cells; Chlorocebus sabaeus, Vero, estimate from raw data, read-out: EC50 viability of Vero cells): > 50 µM; IC50 (S. mansoni TGR): 10.3 ± 2.01 µM; inhibition at 15 µM (S. mansoni TGR; [8]): 57.4%; Reduction (%) in GSH/GSSG ratio (S. mansoni adult worms [2]; [19]): 0.1416%; Reduction (%) in GSH/GSSG ratio (S. mansoni adult worms [2]; [20]): 0.2338%
